According to US20250255808A1, “NANOGEL PLATFORM TECHNOLOGY FOR LONG-TERM BIOLOGICS THERAPY” (UNIVERSITY OF MARYLAND, BALTIMORE, priority 2022, published 2025):

Assays:
[1] = Structural integrity of released Avastin (far-UV and fluorescence emission scans); format: physicochemical; conditions: after release from the nanogels, versus native and denatured controls
Method: Nanogels containing 0, 2 or 5 mol % acrylic acid (AA) loaded with 12.5 or 37.5 wt % Avastin were dispersed in 1 mL PBS (pH 7.4) inside a release device (Float-A-Lyzer® G2, Spectrum Laboratories Inc.) with MWCO 300 kDa at 20 mg/mL. The release device was immersed in 20 mL PBS (pH 7.4) in a 50 mL conical centrifuge tube, and the release was carried out in an incubator shaker at 70 rpm and 37° C. for 100 days. At selected times, the release device was transferred to a new PBS (pH 7.4) release media maintained at 37° C. The amount of Avastin released at each time point was measured using a BCA total protein assay kit (n=4). The fluorescence spectra of released Avastin at late time points were compared to native Avastin® to evaluate the structural integrity of the therapeutic antibody during release.

[2] = tested on: VEGF expression of hfRPE cells; assay: VEGF ELISA on hfRPE cells with and without UV treatment; format: cell-based, human; conditions: Avastin 0.25 mg/mL, nanogels 2 mg/mL, 24 hours
Method: To test the ability of Avastin®-loaded nanogels to affect VEGF expression, HfRPE cells were seeded in 96-well plates at a density of 100,000 cells/cm^2. After one day incubation, cell media for all groups was changed to PBS (pH 7.4). Half of all cells were exposed to UV light (1 J/cm) for one hour, and the other half were placed back into the cell incubator. After the 1-hour exposure, PBS (pH 7.4) for all wells were replaced with serum free media (DMEM+pen/strep), then Avastin® at concentration 0.25 mg/mL, and nanogels containing 2 mol % AA with and without 12.5 wt % Avastin® were added into the wells at a concentration of 2 mg/mL. Cells with and without UV treatment were used as controls.
After 24 hours, a VEGF ELISA assay was conducted on all experimental groups.

Bevacizumab [Avastin]
secondary and tertiary protein structures [1]: intact | VEGF expression of hfRPE ([2]; UV-treated cells): reduces the VEGF expression to the level of the cells without UV treatment | VEGF expression of hfRPE ([2]; cells without UV treatment): do not change VEGF expression
